# Data reported in ChEMBL document CHEMBL1130361, “Homology modeling of the ampa receptor: A quantitative predictive tool for the design of novel antagonists” (Bioorg Med Chem Lett, 1997).
# Biological target: Glutamate receptor ionotropic AMPA (Homo sapiens, UniProt P42261+P42262+P42263+P48058)
# Description: Binding affinity against AMPA receptor using [3H]- AMPA radioligand
row,Compound,IC50
1,COC(=O)c1cc2nc(O)c(O)nc2c2c1CN(C)CC2,44000 nM
2,C[C@@]12CC[C@H](CSc3nn[nH]n3)C[C@]1(C)CC(C(=O)O)NC2 (some centres not stated),580 nM
3,CN1Cc2c(S(=O)(=O)N(C)C)cc3c(N=O)c(O)[nH]c3c2C1,700 nM
4,Oc1nc2ccc3c(c2nc1O)CCCN3,24000 nM
5,O=C1Nc2c(ccc3c2CCCC3)/C1=N/O,7200 nM
6,CN1CCc2c([N+](=O)[O-])cc3[nH]c(=O)c(=O)[nH]c3c2C1,80 nM

# Results, then the compound that gave them:
row,IC50,Compound
1,2000 nM,O=[N+]([O-])c1ccc2nc(O)c(O)nc2c1
2,1350 nM,C[C@@]12CC[C@H](CCc3nnn[nH]3)C[C@]1(C)CC(C(=O)O)NC2 (some centres not stated)
3,166 nM,CCN1CCc2c([N+](=O)[O-])cc3[nH]c(=O)c(=O)[nH]c3c2C1
4,150 nM,CN1CCc2c(-c3ccc([N+](=O)[O-])cc3)cc3c(c2C1)NC(=O)/C3=N\O
5,153 nM,CC(C)N1CCc2c([N+](=O)[O-])cc3[nH]c(=O)c(=O)[nH]c3c2C1
6,630 nM,C[C@@]12CC[C@H](CS(=O)(=O)c3nc[nH]n3)C[C@]1(C)CC(C(=O)O)NC2 (some centres not stated)
